# According to patent publication US9527842B2, “Inhibitors of human immunodeficiency virus replication” (priority 2013, dated 2016):
# Like-named read-outs stand apart in the source and are kept apart here.
# Experiments:
# [1] = rcm bond, Hoveyda-Grubbs II, then NaOH, DCE
# [2] = rcm bond, Hoveyda-Grubbs II, DCE
structure (smiles),measurement,setting,value
COC(=O)[C@@H](OC(C)(C)C)c1c(C)cn2nc3cc2c1N1CCC(C)(CC1)OCC=CCC[C@H](C)Oc1ccc(C)cc1-c1cccc-3c1,"ring closure, yield after HPLC","[1]; from C=CCC[C@H](C)Oc1ccc(C)cc1-c1cccc(-c2cc3c(N4CCC(C)(OCC=C)CC4)c([C@H](OC(C)(C)C)C(=O)OC)c(C)cn3n2)c1, 21-membered ring, then H2, Pd/C, 1.86 mM, 85.0 °C, 3.0 h, 3 steps",40.6%
COC(=O)[C@@H](OC(C)(C)C)c1c(C)cn2nc3cc2c1N1CCC(C)(CC1)OCC=CCOc1ccccc1CC(O)CNC3=O (stereo partly shown),"ring closure, isolated yield","[2]; from C=CCOc1ccccc1CC(O)CNC(=O)c1cc2c(N3CCC(C)(OCC=C)CC3)c([C@H](OC(C)(C)C)C(=O)OC)c(C)cn2n1, 21-membered ring, 1.81 mM, 70.0 °C, 3.0 h",58%
COC(=O)[C@@H](OC(C)(C)C)c1c(C)cn2nc3cc2c1N1CCC(C)(CCC=CCOc2cc(F)ccc2CNC3=O)CC1,"ring closure, yield after HPLC","[1]; from C=CCCC1(C)CCN(c2c([C@H](OC(C)(C)C)C(=O)OC)c(C)cn3nc(C(=O)NCc4ccc(F)cc4OCC=C)cc23)CC1, 19-membered ring, 1.57 mM, 70.0 °C, 2.0 h, 2 steps",53.5%
COC(=O)[C@@H](OC(C)(C)C)c1c(C)cn2nc3cc2c1N1CCC(C)(CC1)OCC=CC(C)COc1ccc(C)cc1-c1cccc-3c1 (stereo partly shown),"ring closure, isolated yield","[2]; from C=CCOC1(C)CCN(c2c([C@H](OC(C)(C)C)C(=O)OC)c(C)cn3nc(-c4cccc(-c5cc(C)ccc5OCC(C)C=C)c4)cc23)CC1, 20-membered ring, 2.13 mM, 85.0 °C, 2.0 h",82%
COC(=O)[C@@H](OC(C)(C)C)c1c(C)cn2nc3cc2c1N1CCC(C)(CC1)OCC=CC[C@H](C)Oc1ccc(C#N)cc1-c1cccc-3c1,"ring closure, isolated yield","[2]; from C=CCOC1(C)CCN(c2c([C@H](OC(C)(C)C)C(=O)OC)c(C)cn3nc(-c4cccc(-c5cc(C#N)ccc5O[C@@H](C)CC=C)c4)cc23)CC1, 20-membered ring, 1.51 mM, 85.0 °C, 2.0 h",82%
COC(=O)[C@@H](OC(C)(C)C)c1c(C)cn2nc3cc2c1N1CCC(C)(CC1)OCC=CC[C@H](C)Oc1cc(F)ccc1-c1cccc-3c1,"ring closure, yield after HPLC","[1]; from C=CCOC1(C)CCN(c2c([C@H](OC(C)(C)C)C(=O)OC)c(C)cn3nc(-c4cccc(-c5ccc(F)cc5O[C@@H](C)CC=C)c4)cc23)CC1, 20-membered ring, then H2, Pd/C, 1.57 mM, 85.0 °C, 2.0 h, 3 steps",49.8%
COC(=O)[C@@H](OC(C)(C)C)c1c(C)cn2nc3cc2c1N1CCC(C)(CC1)OCC=CC[C@H](C)Oc1ccc(F)cc1-c1cccc-3c1,"ring closure, yield after HPLC","[1]; from C=CCOC1(C)CCN(c2c([C@H](OC(C)(C)C)C(=O)OC)c(C)cn3nc(-c4cccc(-c5cc(F)ccc5O[C@@H](C)CC=C)c4)cc23)CC1, 20-membered ring, then H2, Pd/C, 2.02 mM, 85.0 °C, 2.0 h, 3 steps",23.2%
